In US20230265391A1, “METHODS AND COMPOSITIONS FOR MAKING AND USING ENDOCARDIAL CELLS” (University Health Network, priority 2020, published 2023):

Columns and labels:
Type in all cases: cell-based, human
NKX2-5+ CD31+ cells [1] = assay: Generation of NKX2-5+ CD31+ cells from hPSC-derived cardiogenic mesoderm (flow cytometry)
Description: To generate endocardial/endothelial cells, hPSCs were differentiated to cardiogenic mesoderm using the protocol described above. At day 3, the EBs were dissociated with TrypLE for 3 min at 37° C. and the cells plated in 96-well flat bottom microplates (Falcon) coated with Matrigel (25% v/v, Corning) at a density of 10e5 cells per well. The monolayers were cultured in StemPro-34 supplemented with penicillin/streptomycin (1%, ThermoFisher), L-glutamine (2 mM, ThermoFisher), ascorbic acid (50 μg/ml, Sigma), monothioglycerol (50 μg/ml, Sigma), transferrin (150 μg/ml, ROCHE) and rhbFGF (50 ng/ml, R&D). For endocardial induction, rhBMP10 (10 ng/ml) was added to the media from day 5 to day 9. For generation of control endothelial cells, VEGFA (100 ng/mL, R&D) was added to the differentiation media from day 3 to day 9. The cultures were incubated in a low oxygen environment (5% CO2, 5%O2, 90% N2) and the media was changed every 2 days. At day 9, HES3-NKX2-5eGFP/w-derived endocardial/endothelial cells were analyzed and isolated based on the expression of NKX2-5:GFP and CD31. The endocardial cells generated from the non-transgenic hPSC lines were analyzed and isolated as CD31+ populations. For dissociation, the monolayers were incubated in Collagenase type 2 (1 mg/ml, Worthington) in HANKs buffer at 37° C. for one hour.
Day 3 EBs were dissociated with TrypLE for 3 min at 37° C. Day 9-23 EBs or mixed populations of cardiomyocytes and endocardial/endothelial cells were dissociated by incubation in Collagenase type 2 (1 mg/ml, Worthington) in HANKS buffer at 37° C. for one hour followed by TrypLE treatment (5 min at 37° C.). The following antibodies were used for staining: anti-SIRPA-PeCy7 (Biolegend, 1:1000), anti-CD31-PE (BD Pharmingen, 1:100), anti-CD31-FITC (BD Pharmingen, 1:100), anti-CD31-AF647 (BD Pharmingen, 1:100), anti-CD90-APC (BD Pharmingen, 1:1000), anti-PDGFRB-BV421 (BD Pharmingen, 1:100), anti-CD105-APC (eBioscience, 1:200), anti-CD56-APC (BD Pharmingen, 1:100), anti-PDGFRA-PE (BD Pharmingen, […]), anti-CD36-APC (Biolegend, 1:100), anti-LDLR-BV421 (Biolegend, 1:100), anti-cardiac isoform of CTNT (ThermoFisher Scientific, 1:2000), or anti-myosin light chain 2 (Abcam, 1:1000), anti-ANP (Abcam, 1:500). For unconjugated primary antibodies, the following secondary antibodies were used for detection: goat anti-mouse IgG-APC (BD Pharmigen, 1:250), or donkey anti-rabbit IgG-AF488 (ThermoFisher Scientific, 1:1000). Detailed antibody information is described in the Key Resources Table. For cell-surface marker analyses, cells were stained for 30 min at 4° C. in FACS buffer consisting of PBS with 5% fetal calf serum (FCS) (Wisent) and 0.02% sodium azide. For intracellular staining, cells were fixed for 15 min at 4° C. with 4% PFA in PBS followed by permeabilization using 90% methanol for 20 min at 4° C. Cells were washed with PBS containing 0.5% BSA (Sigma) and stained with unconjugated primary antibodies in FACS buffer overnight at 4° C. Stained cells were washed with PBS with 0.5% BSA and stained with secondary antibodies in FACS buffer for 1 h at 4° C. Stained cells were analyzed using an LSR II Flow cytometer (BD). For cell sorting, cells were stained, washed and kept in IMDM with 0.2% KnockOut™ serum replacement and sorted using either Influx (BD), FACSAriaII (BD), MoFlo-XDP (BD) of FACSAria Fusion (BD) cells sorter at the Sickids/UHN flow cytometry facility. Data were analyzed using FlowJo software (Tree Star).
Initial experiments were set up to identify the signaling pathways that would promote the generation of a NKX2-5+ CD31+ cell that we propose represents the earliest stage of human endocardial development. The transgenic HES3-NKX2-5eGFP/w reporter line (Elliott et al., 2011, Nat. Methods, 8(12):1037-40) was used to allow for the identification of NKX2-5+ cells by flow cytometry. […]

[2] = test system: NKX2-5+ CD31+ endocardial-like cells and SIRPA+ cardiomyocytes; assay: Co-culture of NKX2-5+ CD31+ endocardial-like cells (HES3-NKX2-5eGFP/w) with SIRPA+ cardiomyocytes
Description: (§1) For culture in the absence of cardiomyocytes, the endocardial or control endothelial cells (HES3-NKX2-5eGFP/w line) isolated at day 9 of differentiation were plated in a 96-well flat bottom microplate (Falcon) coated with Matrigel (25% v/v, Corning) at a density 2.5×10e4 cells per well in StemPro-34 supplemented with penicillin/streptomycin (1%, ThermoFisher), L-glutamine (2 mM, ThermoFisher), ascorbic acid (50 μg/ml, Sigma), monothioglycerol (50 μg/ml, Sigma), rhVEGFA (100 ng/ml, R&D) with or without rhBMP10 (10 ng/ml) or rhBMP4 (10 ng/ml). For co-culture of the two cell types, 5×10e4 hPSC-derived SIRPA+ cardiomyocytes (day 9) were mixed together with either 2.5×10e4 HES3-NKX2-5eGFP/w- or 5×10e4 HES2:RFP-derived endocardial or endothelial cells and cultured for 8 days in 96-well flat bottom microplates (Falcon) coated with Matrigel (25% v/v, Corning) in StemPro-34 supplemented with penicillin/streptomycin (1%, ThermoFisher), L-glutamine (2 mM, ThermoFisher), ascorbic acid (50 μg/ml, Sigma), monothioglycerol (50 μg/ml, Sigma) and rhVEGFA (100 ng/ml, R&D). For inhibition of the NRG-ERBB pathway lapatinib (10 μM, LC labs) was added to the media. Control cardiomyocytes were cultured as aggregates as described above in the same media with or without NRG1 (50 ng/ml). The cultures were incubated in a normoxic environment (5% CO2) and the media was changed every 2 days. […]

[3] = test system: RFP+ CD31+ endocardial-like cells and SIRPA+ cardiomyocytes; assay: Co-culture of HES2-RFP CD31+ endocardial-like cells with HES2-GFP SIRPA+ cardiomyocytes; settings: lapatinib 10 μM, 8 days co-culture, VEGFA 100 ng/ml
Description: as §1

NKX2-5+ CD31+ cells [4] = assay: Generation of NKX2-5+ CD31+ cells from hPSC-derived cardiogenic mesoderm (flow cytometry); settings: BMP alone (10 ng/ml) in the absence of bFGF; day 9
[5] = test system: NKX2-5+ CD31+ endocardial-like cells; assay: 8-day culture of sorted day 9 NKX2-5+ CD31+ endocardial-like or control endothelial cells with VEGFA and BMP
Description: For culture in the absence of cardiomyocytes, the endocardial or control endothelial cells (HES3-NKX2-5eGFP/w line) isolated at day 9 of differentiation were plated in a 96-well flat bottom microplate (Falcon) coated with Matrigel (25% v/v, Corning) at a density 2.5×10e4 cells per well in StemPro-34 supplemented with penicillin/streptomycin (1%, ThermoFisher), L-glutamine (2 mM, ThermoFisher), ascorbic acid (50 μg/ml, Sigma), monothioglycerol (50 μg/ml, Sigma), rhVEGFA (100 ng/ml, R&D) with or without rhBMP10 (10 ng/ml) or rhBMP4 (10 ng/ml). For co-culture of the two cell types, 5×10e4 hPSC-derived SIRPA+ cardiomyocytes (day 9) were mixed together with either 2.5×10e4 HES3-NKX2-5eGFP/w- or 5×10e4 HES2:RFP-derived endocardial or endothelial cells and cultured for 8 days in 96-well flat bottom microplates (Falcon) coated with Matrigel (25% v/v, Corning) in StemPro-34 supplemented with penicillin/streptomycin (1%, ThermoFisher), L-glutamine (2 mM, ThermoFisher), ascorbic acid (50 μg/ml, Sigma), monothioglycerol (50 μg/ml, Sigma) and rhVEGFA (100 ng/ml, R&D). For inhibition of the NRG-ERBB pathway lapatinib (10 μM, LC labs) was added to the media. Control cardiomyocytes were cultured as aggregates as described above in the same media with or without NRG1 (50 ng/ml). The cultures were incubated in a normoxic environment (5% CO2) and the media was changed every 2 days.
To further investigate differences between these pathway agonists, BMP10-induced NKX2-5+ CD31+ cells were cultured in the presence of different concentrations of either BMP4 or BMP10 for 8 days. VEGFA was added to maintain the endothelial phenotype of the cells during this culture period.

Cc1c[nH]c(-c2cnc(NCCNc3ccc(C#N)cn3)nc2-c2ccc(Cl)cc2Cl)n1 [CHIR99021, reference compound]
total number of NKX2-5+ CD31+ cells produced (NKX2-5+ CD31+ cells [1]; 1 μM CHIR99021 for 2, 4 or 6 days from day 3, day 9): did not impact
frequency of NKX2-5+ CD31+ cells (NKX2-5+ CD31+ cells [1]; 1 μM CHIR99021 for 6 days from day 3, day 9): decrease

Cc1ccc2nc(NC(=O)CSc3nc4c(c(=O)n3-c3ccccc3)SCC4)sc2c1 [IWP2, reference compound]
total number of NKX2-5+ CD31+ cells (NKX2-5+ CD31+ cells [1]; IWP2 added for 4 or 6 days from day 3, day 9): reduced
frequency of NKX2-5+ CD31+ cells generated (NKX2-5+ CD31+ cells [1]; Wnt inhibition, 2 μM IWP2 for 2, 4 or 6 days from day 3, day 9 read-out): significant reduction

c1ccc2c(-c3cnn4cc(-c5ccc(N6CCNCC6)cc5)cnc34)ccnc2c1 [LDN193189]
NKX2-5 expression in endocardial cells ([2]; cells isolated from co-cultures and cells treated with BMP10, 8 days, different concentrations of LDN193189): partial downregulation

CS(=O)(=O)CCNCc1ccc(-c2ccc3ncnc(Nc4ccc(OCc5cccc(F)c5)c(Cl)c4)c3c2)o1 [lapatinib]
induction of the trabecular fate by NKX2-5+ CD31+ endocardial-like cells ([2]; lapatinib 10 μM, 8 days co-culture, VEGFA 100 ng/ml): inhibited
induction of trabecular myocardium markers by RFP+ CD31+ endocardial-like cells [3]: inhibited

BMP10: Recombinant human BMP10 (R&D)
populations containing CD31+ cells (NKX2-5+ CD31+ cells [4]): None
proportion of NKX2-5+ CD31+ cells generated (NKX2-5+ CD31+ cells [1]; BMP 10 ng/ml paired with exogenous bFGF, day 9): significantly increased
NRG1 expression in induced NKX2-5+ CD31+ population (RT-qPCR) (NKX2-5+ CD31+ cells [1]; BMP10-induced versus BMP4-induced cells): higher levels
fraction of CD105+ cells (NKX2-5+ CD31+ cells [1]; BMP10-induced versus BMP4-induced or control endothelial populations): much larger fraction
total number of NKX2-5+ CD31+ cells at days 8 and 9 (NKX2-5+ CD31+ cells [1]; BMP10-induced versus BMP4-treated populations): significantly higher
day of emergence of NKX2-5+ CD31+ cells (NKX2-5+ CD31+ cells [1]; BMP agonist with bFGF, populations persisted to day 12): 8 days
concentration inducing the highest frequency and number of NKX2-5+ CD31+ cells (NKX2-5+ CD31+ cells [1]; days 5-9, in presence of bFGF 50 ng/ml): 10 ng/mL
NRG1 levels in cultured NKX2-5+ CD31+ cells ([5]; 8 days, BMP10 10 ng/ml versus BMP4 10 ng/ml, VEGFA 100 ng/ml): sustained higher levels
maintaining the NKX2-5+ CD31+ cell phenotype ([5]; 8 days, VEGFA 100 ng/ml, all concentrations of agonist tested): more effective than BMP4
NRG1 expression in control endothelial population ([5]; BMP10 added during 8-day culture): did not lead to the upregulation
